Here are results for seven compounds from patent US20110098296A1, “Thiazole And Oxazole Kinase Inhibitors” (priority 2007, published 2011).

In general, IC50 refers to the concentration that inhibits the measured activity by half. A high value points to weaker potency in that assay.

The assay has as its system SK-MEL-28 tumor cells. Description: Method C: Cell Growth Inhibition Assay (CellTiter-Glo), SK-MEL-28. Conditions: Homo sapiens, SK-MEL-28, 72 h, 3 days, 4-parameter fit. The class given is cell-based. In outline: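 Cells were seeded at 500 per well and dosed the next day with nine serial 1:3 compound dilutions (0.2% DMSO final), then grown 3 days at 37° C, 5% CO2. ATP was measured by CellTiter-Glo luminescence, and IC50 was interpolated by 4-parameter fit of percent inhibition versus DMSO controls.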

Take `Cc1nc(-c2cccc(NC(=O)c3c(F)cccc3F)c2)c(-c2ccnc(Nc3ccc(OCCN(C)C)c(Cl)c3)n2)s1` [Example 103, N-[3-(5-{2-[(3-Chloro-4-{[2-(dimethylamino)ethyl]oxy}phenyl)amino]-4-pyrimidinyl}-2-methyl-1,3-thiazol-4-yl)phenyl]-2,6-difluorobenzamide]: the IC50 is more than 1 µM.
Consider `Cc1nc(-c2cccc(NC(=O)c3cc(F)ccc3F)c2)c(-c2ccnc(Nc3ccc(OCCN(C)C)c(Cl)c3)n2)o1` [Example 142], for which the 50% inhibitory concentration (IC50) was more than 1 µM.
In turn, `COc1ccc(Nc2nccc(-c3sc(N)nc3-c3cccc(NC(=O)c4c(F)cccc4F)c3)n2)cc1N1CCNCC1` [Example 18, N-[3-(2-Amino-5-{2-[(4-methoxy-3-piperaziN-1-ylphenyl)amino]pyrimidiN-4-yl}-1,3-thiazol-4-yl)phenyl]-2,6-difluorobenzamide] returned an IC50 of more than 1 µM.
With `Nc1nc(-c2cccc(C(=O)Nc3c(F)cccc3F)c2)c(-c2ccnc(Nc3cccc(CN4CCCC4)c3)n2)s1` [Example 77, 3-[2-Amino-5-(2-{[3-(1-pyrrolidinylmethyl)phenyl]amino}-4-pyrimidinyl)-1,3-thiazol-4-yl]-N-(2,6-difluorophenyl)benzamide] the figure was more than 1 µM; with `Cc1nc(-c2cccc(NC(=O)c3c(F)cccc3F)c2)c(-c2ccnc(Nc3ccc(OC4CCN(C(=O)OCc5ccccc5)CC4)c(F)c3)n2)s1` [Example 106], more than 1 µM; with `CCNc1nc(-c2cccc(NC(=O)C3CC3)c2)c(-c2ccnc(Nc3ccc(OCCN4CCCC4)c(Cl)c3)n2)s1` [Example 63, N-{3-[5-{2-[(3-Chloro-4-{[2-(1-pyrrolidinyl)ethyl]oxy}phenyl)amino]-4-pyrimidinyl}-2-(ethylamino)-1,3-thiazol-4-yl]phenyl}cyclopropanecarboxamide], more than 1 µM.
Consider `CCc1nc(-c2cccc(NC(=O)c3c(F)cccc3F)c2)c(-c2ccnc(Nc3cccc(CN4CCCC4)c3)n2)s1` [Example 115, N-{3-[2-Ethyl-5-(2-{[3-(1-pyrrolidinylmethyl)phenyl]amino}-4-pyrimidinyl)-1,3-thiazol-4-yl]phenyl}-2,6-difluorobenzamide], for which the half-inhibitory concentration (IC50) is more than 1 µM.
